# According to patent US20250041438A1, “ANTIBODY-DRUG CONJUGATE” (NOVELTY NOBILITY INC., priority 2022, published 2025):
# How the values were obtained:
# GIST-T1 cells = format: in vivo; conditions: imatinib 100 mg/kg p.o. D0-D29
# GIST-430/654 cells = test: In vivo efficacy against imatinib-resistant GIST, GIST-430/654 cell xenograft model; parameters: species or system mice; conditions: day 49; imatinib 100 mg/kg p.o.
# SCLC-H526 cells = test: In vivo efficacy against SCLC, SCLC-H526 xenograft model; parameters: species or system mice; conditions: day 21; imatinib 100 mg/kg p.o.
# Method: In order to evaluate the efficacy of ADC substances against SCLC, an experiment was performed. The SCLC-H526 (NCI-H526, stage E, carcinoma; variant small cell lung cancer, c-Kit overexpression) xenograft model was used.
# HMC 1.2 cells = test: In vivo efficacy against mast cell tumor, HMC 1.2 xenograft model; parameters: species or system mice; conditions: day 17; imatinib 100 mg/kg p.o.
# Kasumi-1 cells = test: In vivo efficacy against AML, Kasumi-1 xenograft model; parameters: species or system mice; conditions: day 17; imatinib 100 mg/kg p.o.
# Method: The experiment was performed in the same manner as in Example 5, except that Kasumi-1 cells (3×10^6/100 […]/head/serum free, RPMI1640 medium) in 50% Matrigel (Corning, 354248, NY, USA) were used. The mice were enrolled in this study on day 29 after transplantation, and the average tumor volume was about 170 mm^3 (day 0).
structure (smiles),measurement,setting,value
"Cc1ccc(NC(=O)c2ccc(CN3CCN(C)CC3)cc2)cc1Nc1nccc(-c2cccnc2)n1 [imatinib, reference compound]","tumor weight after sacrifice, decrease compared to the control (vehicle)",GIST-T1 cells,about 59%
same,"tumor growth inhibition compared to the control (vehicle), in words",GIST-430/654 cells,little inhibition of tumor growth
same,"tumor growth inhibition compared to the control (vehicle), in words",SCLC-H526 cells,little inhibition of tumor growth
same,"tumor growth inhibition, in words",HMC 1.2 cells,little inhibition of tumor growth
same,"tumor growth inhibition compared to the control (vehicle), in words",Kasumi-1 cells,little inhibition of tumor growth
